In one experiment the target is GSK3β (Homo sapiens, UniProt P49841). Put plainly: GSK3beta assay (SPA, biotinylated phosphorylated CREB peptide, ATP-P33). Conditions: −log IC50 (M); given as ranges (>8; 7-8; <7); read-out: pIC50 (GSK3beta) (converted). It counts as biochemical. Put shortly:
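Radiometric SPA at room temperature, pH 7.4 Tris/MgCl2/DTT/BSA/glycerol, with 5.7 ng/μl GSK3β, 5 μM biotinylated phospho-CREB peptide, 1 μM ATP plus 33P-ATP for 1 h. Stopped with streptavidin SPA beads, counted after overnight settling; % inhibition versus no-compound control, IC50 from dose-response curve.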

The target of the next experiment is GSK3alpha (Homo sapiens, UniProt P49840). Nature of the experiment: GSK3alpha assay (same as the GSK3beta assay, GSK3alpha 0.25 ng/μl). It counts as biochemical. As to conditions: −log IC50 (M); given as ranges (>8; 7-8; <7); read-out: pIC50 (GSK3alpha) (converted). Put shortly: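 GSK3α at 0.25 ng/μl phosphorylated 5 μM biotinylated phospho-CREB peptide with 1 μM ATP and 33P-ATP for 1 h at room temperature, in 25 mM Tris pH 7.4 with 10 mM MgCl2 and 1 mM DTT. Phosphorylated peptide was captured on streptavidin SPA beads and counted. IC50 was taken from dose-response curves.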
Chain of GSK3alpha (P49840 whole entry, species assumed): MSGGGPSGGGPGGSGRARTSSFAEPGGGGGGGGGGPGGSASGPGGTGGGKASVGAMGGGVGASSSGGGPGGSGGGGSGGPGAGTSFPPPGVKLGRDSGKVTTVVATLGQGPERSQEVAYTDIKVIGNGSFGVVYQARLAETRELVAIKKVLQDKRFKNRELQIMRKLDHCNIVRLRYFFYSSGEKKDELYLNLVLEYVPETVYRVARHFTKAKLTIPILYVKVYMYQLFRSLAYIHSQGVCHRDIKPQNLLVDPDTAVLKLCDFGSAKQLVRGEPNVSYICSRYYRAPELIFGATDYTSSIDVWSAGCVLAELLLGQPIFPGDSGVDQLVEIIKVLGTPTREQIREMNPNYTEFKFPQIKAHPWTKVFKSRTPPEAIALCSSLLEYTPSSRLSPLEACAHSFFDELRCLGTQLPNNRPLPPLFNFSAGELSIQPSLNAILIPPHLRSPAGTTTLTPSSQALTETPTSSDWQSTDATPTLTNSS

Structures are written as SMILES.

Chain of GSK3β (P49841 whole entry, species assumed): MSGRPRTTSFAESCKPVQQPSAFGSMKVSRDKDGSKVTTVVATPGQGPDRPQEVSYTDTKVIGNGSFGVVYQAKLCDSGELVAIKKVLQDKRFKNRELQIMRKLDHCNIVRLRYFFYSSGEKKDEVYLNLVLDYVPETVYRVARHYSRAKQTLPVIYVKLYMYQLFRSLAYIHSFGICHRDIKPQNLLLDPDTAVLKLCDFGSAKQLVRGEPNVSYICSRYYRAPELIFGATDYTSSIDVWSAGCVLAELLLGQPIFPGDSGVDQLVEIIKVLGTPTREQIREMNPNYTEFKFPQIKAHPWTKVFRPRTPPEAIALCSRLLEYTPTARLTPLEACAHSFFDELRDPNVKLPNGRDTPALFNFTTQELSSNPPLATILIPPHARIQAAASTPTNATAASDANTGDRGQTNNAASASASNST

As to `COCc1cccc(-n2nnc3cnc(Nc4cccc(S(C)(=O)=O)c4)nc32)c1` [Compound 96], the IC50 on GSK3β and on GSK3alpha was 1e-08 to 1e-07 M each time.

Consider `CC(=O)NCc1cccc(-n2nnc3cnc(Nc4cccc(C#N)c4)nc32)c1` [Compound 107], for which the IC50 at GSK3β and at GSK3alpha was below 1e-08 M in each case.

`N#Cc1ccc(Nc2ncc3nnn(-c4cccc(C(=O)NCCO)c4)c3n2)cc1` [Compound 229]: the IC50 at GSK3β and at GSK3alpha was below 1e-08 M in each case.

For the molecule `OCc1cccc(Nc2ncc3nnn(-c4cccc(CO)c4)c3n2)c1` [Compound 54], the IC50 on GSK3β and on GSK3alpha was below 1e-08 M throughout.

On to `COCc1cccc(Nc2ncc3nnn(-c4cccc(CCO)c4)c3n2)c1` [Compound 168], for which the IC50 at GSK3β and at GSK3alpha was below 1e-08 M each time.

As for `NCc1ccc(Nc2ncc3nnn(-c4cccc(CCO)c4)c3n2)cc1` [Compound 310], the IC50 at GSK3β and at GSK3alpha was below 1e-08 M each time.

Consider `CS(=O)(=O)Nc1cccc(Nc2ncc3nnn(-c4cccc(CCO)c4)c3n2)c1` [Compound 256], for which the IC50 at GSK3β and at GSK3alpha was below 1e-08 M throughout.

For `NC(=O)Cc1cccc(Nc2ncc3nnn(-c4cccc(F)c4)c3n2)c1` [Compound 153], the IC50 at GSK3β and at GSK3alpha was below 1e-08 M throughout.

Take `COCC(=O)NCc1cccc(-n2nnc3cnc(Nc4cccc(NS(C)(=O)=O)c4)nc32)c1` [Compound 158]: the IC50 at GSK3β and on GSK3alpha was below 1e-08 M throughout.

On to `Nc1cccc(Nc2ncc3nnn(-c4cccc(F)c4)c3n2)c1` [Compound 12], for which the IC50 was below 1e-08 M on GSK3β and 1e-08 to 1e-07 M on GSK3alpha.

In the case of `CS(=O)(=O)Nc1cccc(Nc2ncc3nnn(-c4cccc(CNC(=O)C56CC7CC(CC(C7)C5)C6)c4)c3n2)c1` [Compound 235], the IC50 on GSK3β was 1e-08 to 1e-07 M; on GSK3alpha it was below 1e-08 M.

As for `CNS(=O)(=O)c1cccc(Nc2ncc3nnn(-c4cccc(F)c4)c3n2)c1` [Compound 95], the IC50 at GSK3β and at GSK3alpha was below 1e-08 M throughout.

Take `CC(C)CC(=O)NCc1cccc(-n2nnc3cnc(Nc4cccc(C(=O)NCCO)c4)nc32)c1` [Compound 186]: the IC50 at GSK3β was 1e-08 to 1e-07 M; on GSK3alpha it was below 1e-08 M.

Take `COCc1cccc(-n2nnc3cnc(Nc4cccc(S(=O)(=O)NCCNC(C)=O)c4)nc32)c1` [Compound 154]: the IC50 at GSK3β and on GSK3alpha was 1e-08 to 1e-07 M in each case.

Take `N#CCc1cccc(-n2nnc3cnc(Nc4ccc(Cl)cc4)nc32)c1` [Compound 337]: the IC50 at GSK3β and at GSK3alpha was below 1e-08 M each time.

For the molecule `CC(=O)N(C)c1ccc(Nc2ncc3nnn(-c4cccc(F)c4)c3n2)cc1` [Compound 135], the IC50 at GSK3β and at GSK3alpha was below 1e-08 M throughout.

On to `NCc1cccc(-n2nnc3cnc(Nc4ccc(F)cc4)nc32)c1` [Compound 279], for which the IC50 on GSK3β and on GSK3alpha was 1e-08 to 1e-07 M in each case.

In the case of `CCOC(=O)NCc1cccc(-n2nnc3cnc(Nc4ccc(CC(=O)O)cc4)nc32)c1` [Compound 219], the IC50 on GSK3β and on GSK3alpha was below 1e-08 M throughout.

Consider `COCc1cccc(-n2nnc3cnc(Nc4cccc(C#N)c4)nc32)c1` [Compound 97], for which the IC50 at GSK3β and on GSK3alpha was below 1e-08 M each time.

Take `CC(=O)NCCNS(=O)(=O)c1cccc(Nc2ncc3nnn(-c4cccc(F)c4)c3n2)c1` [Compound 102]: the IC50 on GSK3β and on GSK3alpha was below 1e-08 M in each case.

Regarding `CS(=O)(=O)Nc1cccc(Nc2ncc3nnn(-c4cccc(F)c4)c3n2)c1` [Compound 45], the IC50 at GSK3β and on GSK3alpha was below 1e-08 M throughout.

On to `NS(=O)(=O)c1ccc(Nc2ncc3nnn(-c4cccc(CC(=O)O)c4)c3n2)cc1` [Compound 160], for which the IC50 on GSK3β and at GSK3alpha was 1e-08 to 1e-07 M throughout.

As for `Fc1cccc(-n2nnc3cnc(Nc4ccc(Cl)nc4)nc32)c1` [Compound 32], the IC50 on GSK3β and on GSK3alpha was below 1e-08 M in each case.

Regarding `COc1cccc(-n2nnc3cnc(Nc4ccc(C(=O)O)cc4)nc32)c1` [Compound 246], the IC50 at GSK3β and at GSK3alpha was below 1e-08 M each time.

With `CC(=O)c1cccc(Nc2ncc3nnn(-c4cccc(S(N)(=O)=O)c4)c3n2)c1` [Compound 64], the IC50 on GSK3β and on GSK3alpha was below 1e-08 M throughout.

On to `CS(=O)(=O)Nc1cccc(Nc2ncc3nnn(-c4cccc(CC#N)c4)c3n2)c1` [Compound 264], for which the IC50 at GSK3β and at GSK3alpha was below 1e-08 M in each case.

As to `CC(C)CC(=O)NCc1cccc(-n2nnc3cnc(Nc4cccc(NS(C)(=O)=O)c4)nc32)c1` [Compound 189], the IC50 on GSK3β and on GSK3alpha was below 1e-08 M each time.

Take `CNC(=O)c1ccc(Nc2ncc3nnn(-c4cccc(F)c4)c3n2)cc1` [Compound 308]: the IC50 on GSK3β and at GSK3alpha was below 1e-08 M each time.

Turning to `CC(C)(C)OC(=O)NCc1ccc(Nc2ncc3nnn(-c4cccc(F)c4)c3n2)cc1` [Compound 294], the IC50 on GSK3β and at GSK3alpha was below 1e-08 M in each case.

Regarding `Fc1cccc(Nc2ncc3nnn(-c4cccc(F)c4)c3n2)c1` [Compound 17], the IC50 on GSK3β was 1e-08 to 1e-07 M; on GSK3alpha, below 1e-08 M.

Consider `OCCc1ccc(Nc2ncc3nnn(-c4ccc(CCO)cc4)c3n2)cc1` [Compound 293], for which the IC50 was above 1e-07 M at GSK3β and below 1e-08 M on GSK3alpha.

Take `CS(=O)(=O)Nc1cccc(Nc2ncc3nnn(-c4cccc(S(N)(=O)=O)c4)c3n2)c1` [Compound 58]: the IC50 at GSK3β and on GSK3alpha was below 1e-08 M in each case.

For the molecule `CN(C)CCOc1ccc(Nc2ncc3nnn(-c4cccc(F)c4)c3n2)cc1` [Compound 296], the IC50 on GSK3β and on GSK3alpha was 1e-08 to 1e-07 M each time.

Take `COCCOCc1cccc(-n2nnc3cnc(Nc4ccc(C(=O)N(C)C)cc4)nc32)c1` [Compound 328]: the IC50 on GSK3β and at GSK3alpha was below 1e-08 M each time.

Consider `OCCc1cccc(Nc2ncc3nnn(-c4cccc(CCO)c4)c3n2)c1` [Compound 172], for which the IC50 on GSK3β and on GSK3alpha was below 1e-08 M each time.

Take `N#CCc1cccc(-n2nnc3cnc(Nc4cccc(C(=O)NCCO)c4)nc32)c1` [Compound 275]: the IC50 at GSK3β and at GSK3alpha was below 1e-08 M throughout.

In the case of `COc1ccc(Nc2ncc3nnn(-c4ccccc4)c3n2)cn1` [Compound 47], the IC50 at GSK3β and on GSK3alpha was below 1e-08 M each time.

For the molecule `COCCNC(=O)c1cccc(Nc2ncc3nnn(-c4cccc(F)c4)c3n2)c1` [Compound 90], the IC50 on GSK3β and at GSK3alpha was below 1e-08 M each time.

Take `N#CSc1ccc(Nc2ncc3nnn(-c4cccc(F)c4)c3n2)cc1` [Compound 18]: the IC50 at GSK3β and on GSK3alpha was 1e-08 to 1e-07 M each time.

For the molecule `NC(=O)Cc1cccc(-n2nnc3cnc(Nc4cccc(C(=O)NCCO)c4)nc32)c1` [Compound 271], the IC50 on GSK3β and at GSK3alpha was below 1e-08 M in each case.

As to `COCC(=O)NCc1cccc(-n2nnc3cnc(Nc4cccc(C#N)c4)nc32)c1` [Compound 175], the IC50 at GSK3β and on GSK3alpha was below 1e-08 M throughout.

As to `COCc1cccc(-n2nnc3cnc(Nc4ccc(CCN)cc4)nc32)c1` [Compound 320], the IC50 at GSK3β and at GSK3alpha was 1e-08 to 1e-07 M in each case.

For the molecule `COCc1cccc(-n2nnc3cnc(Nc4cccc(S(N)(=O)=O)c4)nc32)c1` [Compound 85], the IC50 on GSK3β was 1e-08 to 1e-07 M; at GSK3alpha, below 1e-08 M.

`CNS(=O)(=O)c1cccc(Nc2ncc3nnn(-c4cccc(CNC(C)=O)c4)c3n2)c1` [Compound 140]: the IC50 at GSK3β and at GSK3alpha was below 1e-08 M each time.

In the case of `CN(C)C(=O)c1ccc(Nc2ncc3nnn(-c4cccc(CC#N)c4)c3n2)cc1` [Compound 332], the IC50 at GSK3β and on GSK3alpha was below 1e-08 M each time.

As for `CS(=O)(=O)Nc1cccc(Nc2ncc3nnn(-c4cccc(CNC(=O)C5CC5)c4)c3n2)c1` [Compound 202], the IC50 at GSK3β and at GSK3alpha was below 1e-08 M throughout.

As for `CC(C)CC(=O)NCc1cccc(-n2nnc3cnc(Nc4ccc(C(=O)NCC(=O)O)cc4)nc32)c1` [Compound 192], the IC50 at GSK3β and on GSK3alpha was below 1e-08 M each time.

Take `NCc1ccc(Nc2ncc3nnn(-c4cccc(F)c4)c3n2)cc1` [Compound 295]: the IC50 on GSK3β is 1e-08 M; at GSK3alpha, below 1e-08 M.

For the molecule `O=C(O)Cc1cccc(Nc2ncc3nnn(-c4cccc(F)c4)c3n2)c1` [Compound 25], the results for the IC50 on GSK3β and at GSK3alpha were 1e-08 to 1e-07 M and below 1e-08 M, respectively.

As for `OCc1cccc(Nc2ncc3nnn(-c4cccc(F)c4)c3n2)c1` [Compound 31], the IC50 on GSK3β and on GSK3alpha was below 1e-08 M throughout.

For `O=C(O)c1ccc(Nc2ncc3nnn(-c4cccc(C(=O)NCCO)c4)c3n2)cc1` [Compound 247], the IC50 at GSK3β is 1e-08 to 1e-07 M; at GSK3alpha it was below 1e-08 M.

For the molecule `OCCc1ccc(Nc2ncc3nnn(-c4cccc(CCO)c4)c3n2)cc1` [Compound 260], the IC50 at GSK3β and on GSK3alpha was below 1e-08 M each time.

For the molecule `N#CCc1ccc(Nc2ncc3nnn(-c4cccc(F)c4)c3n2)cc1` [Compound 20], the values for the IC50 at GSK3β and on GSK3alpha were 1e-08 to 1e-07 M and below 1e-08 M, respectively.

Consider `CC(=O)NCc1cccc(Nc2ncc3nnn(-c4cccc(CCO)c4)c3n2)c1` [Compound 167], for which the IC50 at GSK3β and on GSK3alpha was below 1e-08 M in each case.

In the case of `COCCOCc1cccc(-n2nnc3cnc(Nc4ccc(CN)cc4)nc32)c1` [Compound 314], the IC50 on GSK3β and on GSK3alpha was 1e-08 to 1e-07 M each time.
